“And” between values parts separate entries of the source, which are not always exact repeats. Identical values can stand only once.
Experiments:
[1] = test system: renal function of nephropathic patients; assay: Effect of ultra-micronized palmitoylethanolamide in nephropathic patients; format: in vivo, human; conditions: 600 mg tablets, 2 per day, 60 days; for GFR Glomerulal Filtration Rate (Creatinine Clearance) T 60: Cockcroft-Gault; for Glycemia under fasting T 60: single patients Paz-04, -05, -06, diabetic nephropathy, compensated with insulin, T 0 values 210, 240, 280 mg/dl
Protocol: Palmitoylethanolamide was administered to patients in form of tablets each containing 600 mg of active ingredient in ultra-micronized form; 2 tablets per day (one every 12 hours, after meals) were administered to patients for 60 consecutive days).
Determination of the GRF (Glomerular Filtration Rate) by the creatinine endogenous marker was carried out according to the […] criteria (K/DOQI clinical practice guidelines for chronic kidney disease, 2002), using the Cockcroft-Gault equation (Cockcroft D. W. et al, 1976).

[2] = test system: renal damage after administration of Cisplatin to mice; assay: Renal damage after administration of Cisplatin to mice (nephrotoxicity model); format: in vivo, male mice C57BL6/J; conditions: for Body weight: Cisplatin mice (20 mg/Kg i.p.); for Concentration of creatinine in the serum / Kidney weight/body weight / Amount of albumin excreted with urine (18 hrs prior to sacrifice): Cisplatin mice
From the text: Cisplatin, a known and widely used chemotherapy agent, notoriously produces a serious renal damage in 50% of the patients subjected to treatment. Experimentally an animal model is used in mice, in which Cisplatin induces serious nephrotoxicity with ensuing renal disease. The model applied is as follows: male mice C57BL6/J were kept under standard conditions of care. Nephrotoxicity was induced into 8-weeks old mice and with an average weight of about 23 g, by means of an intraperitoneal injection of Cisplatin dihydrochloride in saline solution (20 mg/Kg in one administration). The control animals were treated in the same conditions using the saline solution alone. The animals were sacrificed 72 hrs after treatment with Cisplatin.
6 treatments were administered orally, one each 12 hrs by means of a tube, using both micronized palmitoylethanolamide-PEAm (10.0 mg/Kg) suspended in a carrier and ultra-micronized palmitoylethanolamide-PEAum (10.0 mg/Kg) suspended in a carrier; the first treatment was carried out 12 hours prior to the administration of the Cisplatin. The results were compared with control animals treated with the carrier alone. A 0.5% carboxymethyl cellulose solution was used as the carrier.
Diethanolamide of fumaric acid was administered in sterile aqueous saline solution by intraperitoneal injection (10.0 mg/Kg) with posology analogous to that of PEA; the results were compared with animals treated with sterile saline solution alone.
Prior to sacrifice, the blood was collected from the saphenous vein using a micro syringe to measure, through conventional methods, the levels of creatinine of the serum.

[3] = test system: TGF-1β; assay: TGF-1β in renal cortex by ELISA, streptozotocin mice; format: in vivo, male mice C57BL6/J; conditions: pg/mg of total proteins, diabetic mice
Protocol: (§1) The evaluation of TGF-1β on the renal tissue was administered through the following method: small pieces of the renal cortex, carefully separated and weighed, were homogenised in Tris-HCl 10 mM buffer at 7.4 pH containing 2M of NaCl, 1 mM PMSF (phenylmethylsulfonyl fluoride, as a protease inhibitor), 1mM EDTA and 0.01% of Tween 80. The samples were centrifuged at 19,000 rpm for 30 minutes and the supernatant was collected, measured and preserved at −80° C. The evaluation of the TGF-1β was made using the ELISA commercial kit (Quantikine Kit™, Res & Diagn Systems, Minneapolis, USA) and the value expressed in pg/mg of total proteins. The concentration of total proteins was measured using the Bio-Rad commercial test (Hercules, Calif., USA).

[4] = test system: TGF-1β; assay: TGF-1β in renal cortex by ELISA, Cisplatin mice; format: in vivo, male mice C57BL6/J; conditions: pg/mg of total proteins
Protocol: as §1, with “The level of TGF-1β” for “The evaluation of TGF-1β”, “tissue was measured through the” for “tissue was administered through the”, “buffer at a 7.4 pH” for “buffer at 7.4 pH”, “protease inhibitor), 1 mM EDTA and” for “protease inhibitor), 1mM EDTA and”, “C. The amount of the” for “C. The evaluation of the”, “TGF-1β was measured using the” for “TGF-1β was made using the”

[5] = test system: renal damage after administration of streptozotocin to mice; assay: Renal damage after administration of streptozotocin to mice (diabetic nephropathy model); format: in vivo, male mice C57BL6/J
From the text: The model of streptozootocin in mice represents a classic and known model of hyperglycemia capable of inducing a progressive renal damage into the animal leading to the renal disease with clear alterations of the characteristic parameters.
The model applied is as follows: male mice C57BL6/J were kept under standard conditions of care. Diabetes was induced into 8-weeks old mice and with an average weight of about 22 g by means of an intraperitoneal injection of streptozotocin in citrate buffer (55 mg/Kg of weight/day) for 5 consecutive days. The control animals were treated in the same conditions using the citrate buffer alone.
Treatments were administered orally, by means of a tube, using both micronized Palmitoylethanolamide- PEAm (10.0 mg/Kg) suspended in a carrier and ultra-micronized palmitoylethanolamide PEAum (10.0 mg/Kg) suspended in a carrier; the results were compared with control animals treated with the carrier alone. A 0.5% carboxymethyl cellulose was used as a carrier.
Diethanolamide of fumaric acid was administered in sterile aqueous saline solution by intraperitoneal injection (10.0 mg/Kg); the results were compared with the animals treated with sterile saline solution alone.
Administration of the carrier and of the two different suspensions containing palmitoylethanolamide or of the injection solution containing diethanolamide of fumaric acid, were performed once per day starting from the day of the last administration of Streptozotocin. Prior to sacrifice, the blood was collected from the saphenous vein using a micro syringe to determining, through conventional methods, the levels of glycemia, glycated haemoglobin and creatinine of the serum.

[6] = Solubility in water; format: physicochemical
[7] = 10.0 mg/Kg orally every 12 hrs x6, sacrifice 72 hrs, carrier alone 23.10 ± 1.22, control 26.12 ± 1.11
[8] = 10.0 mg/Kg orally every 12 hrs x6, carrier alone 1.26 ± 0.05, control 0.22 ± 0.01, 10 mg/kg
[9] = 10.0 mg/Kg orally every 12 hrs x6, carrier alone 7.22 ± 0.80, control 6.44 ± 0.03, 10 mg/kg
[10] = 10.0 mg/Kg orally every 12 hrs x6, carrier alone 363.75, control 37.4, 10 mg/kg
[11] = 10.0 mg/Kg orally once per day, carrier alone 24.2 ± 5.8, non-diabetic 7.5 ± 0.8, 10 mg/kg
[12] = 10.0 mg/Kg orally every 12 hrs x6, carrier alone 25.3 ± 6.0, control 8.2 ± 0.7, 10 mg/kg
[13] = 10.0 mg/Kg orally once per day in 0.5% carboxymethyl cellulose, carrier alone 25.12 ± 1.10, non-diabetic 27.82 ± 1.18, 10 mg/kg
[14] = 10.0 mg/Kg orally once per day, carrier alone 1.11 ± 0.02, non-diabetic 0.21 ± 0.01, 10 mg/kg
[15] = 10.0 mg/Kg orally once per day, carrier alone 8.65 ± 0.85, non-diabetic 6.65 ± 0.04, 10 mg/kg
[16] = 10.0 mg/Kg orally once per day, carrier alone 12.80 ± 0.44, non-diabetic 4.89 ± 0.05, 10 mg/kg
[17] = 10.0 mg/Kg orally once per day, carrier alone 340.5, non-diabetic 33.7, 10 mg/kg
[18] = 10.0 mg/Kg orally once per day, carrier alone 408.45 ± 33.12, non-diabetic 122.2 ± 5.62, 10 mg/kg

Row | SMILES | Body weight [2, 7] | Concentration of creatinine in the serum [2, 8] | Kidney weight/body weight [2, 9] | Amount of albumin excreted with urine (18 hrs prior to sacrifice) [2, 10] | Level of TGF-1β [3, 11] | TGF-1β level in renal cortex (pg/mg total protein) [4, 12] | Body weight [5, 13] | Concentration of creatinine in the serum [5, 14] | Kidney weight/body weight [5, 15] | Glycated haemoglobin % [5, 16] | Amount of albumin excreted with urine (18 hrs prior to sacrifice) [5, 17] | Glycemia [5, 18] | other results
1 | CCCCCCCCCCCCCCCC(=O)NCCO [PEAum, Palmitoylethanolamide] | 24.55 ± 1.09 g | 0.48 ± 0.02 mg/dL | 6.89 ± 0.42 | 175.9 | 10.3 ± 2.5 pg/mg | 9.4 ± 3.2 pg/mg | 26.12 ± 1.21 g | 0.44 ± 0.01 mg/dL | 7.15 ± 0.38 | 11.01 ± 0.18% | 151.5 | 380.34 ± 34.16 mg/dL | GFR Glomerulal Filtration Rate (Creatinine Clearance) T 60 ([1]; single patients Paz-01, -02, -03, chronic inflammatory nephropathy, T 0 values 26.4, 21.4, 20.7): 44.6 and 35.2 and 36.1; GFR Glomerulal Filtration Rate (Creatinine Clearance) T 60 ([1]; single patients Paz-04, -05, -06, diabetic nephropathy (diabetes type 2), T 0 values 18.9, 22.4, 21.8): 41.4 and 35.6 and 39.8; Glycemia under fasting T 60 ([1]; with 10 U ready insulin): 230 mg/dL; Glycemia under fasting T 60 ([1]; with 10 U ready plus 20 U retard insulin): 210 mg/dL; Glycemia under fasting T 60 ([1]; with 12 U retard insulin): 110 mg/dL
2 | CCCCCCCCCCCCCCCC(=O)NCCO [PEAm, Palmitoylethanolamide] | 23.58 ± 1.13 g | 0.92 ± 0.03 mg/dL | 7.85 ± 0.34 | 270.90 | 15.0 ± 3.0 pg/mg | 15.8 ± 3.5 pg/mg | 26.52 ± 1.08 g | 0.81 ± 0.01 mg/dL | 7.85 ± 0.44 | 11.32 ± 0.38% | 289.4 | 386.12 ± 36.76 mg/dL | –
3 | O=C(/C=C/C(=O)NCCO)NCCO [diethanolamide of fumaric acid, Diethanolamide of fumaric acid] | – | – | – | – | – | – | – | – | – | – | – | – | Body weight ([2]; 10.0 mg/Kg i.p. in saline solution, posology as PEA, saline alone 24.22 ± 1.45, control 26.12 ± 1.11): 24.15 ± 1.12 g; Concentration of creatinine in the serum ([2]; 10.0 mg/Kg i.p., saline alone 1.36 ± 0.02, control 0.22 ± 0.01): 0.83 ± 0.06 mg/dL; Kidney weight/body weight ([2]; 10.0 mg/Kg i.p., saline alone 8.15 ± 0.46, control 6.44 ± 0.03): 6.58 ± 0.26; Amount of albumin excreted with urine (18 hrs prior to sacrifice) ([2]; 10.0 mg/Kg i.p., saline alone 351.57, control 37.4): 181.4; Level of TGF-1β ([3]; 10.0 mg/Kg i.p. once per day, saline alone 25.3 ± 4.6, non-diabetic 7.5 ± 0.8): 11.7 ± 3.2 pg/mg; TGF-1β level in renal cortex (pg/mg total protein) ([4]; 10.0 mg/Kg i.p., saline alone 22.1 ± 4.3, control 8.2 ± 0.7): 9.1 ± 2.8 pg/mg; Body weight ([5]; 10.0 mg/Kg i.p. once per day in saline solution, saline alone 24.43 ± 1.15, non-diabetic 27.82 ± 1.18): 26.22 ± 1.02 g; Concentration of creatinine in the serum ([5]; 10.0 mg/Kg i.p. once per day, saline alone 1.51 ± 0.08, non-diabetic 0.21 ± 0.01): 0.51 ± 0.03 mg/dL; Kidney weight/body weight ([5]; 10.0 mg/Kg i.p. once per day, saline alone 9.00 ± 0.56, non-diabetic 6.65 ± 0.04): 7.02 ± 0.46; Glycated haemoglobin % ([5]; 10.0 mg/Kg i.p. once per day, saline alone 13.41 ± 0.63, non-diabetic 4.89 ± 0.05): 12.12 ± 0.26%; Amount of albumin excreted with urine (18 hrs prior to sacrifice) ([5]; 10.0 mg/Kg i.p. once per day, saline alone 315.05, non-diabetic 33.7): 135.7; Glycemia ([5]; 10.0 mg/Kg i.p. once per day, saline alone 406.32 ± 33.44, non-diabetic 122.2 ± 5.62): 386.19 ± 33.98 mg/dL; Solubility in water [6]: high solubility
